Source: BindingDB's records for doi:10.1021/jm020050+ (Glaxosmithkline, 2002)

How the values were obtained:
[1] = biological target: T1, Enoyl-[acyl-carrier-protein] reductase [NADH] FabI (Haemophilus influenzae (strain ATCC 51907 / DSM 11121 / KW20 / Rd), UniProt P44432); experiment: Enzyme Inhibition Assay; conditions: 30 °C
T1 sequence (P44432 whole entry): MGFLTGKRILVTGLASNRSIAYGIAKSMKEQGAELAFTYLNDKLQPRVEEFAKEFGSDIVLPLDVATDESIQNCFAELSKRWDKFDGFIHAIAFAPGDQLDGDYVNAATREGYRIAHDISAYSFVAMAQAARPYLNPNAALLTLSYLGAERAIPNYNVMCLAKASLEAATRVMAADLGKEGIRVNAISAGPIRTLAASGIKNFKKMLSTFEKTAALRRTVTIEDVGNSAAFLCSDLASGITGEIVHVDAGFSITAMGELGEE
Procedure: (§1) Assays were carried out in half-area, 96-well microtiter plates. Compounds were evaluated in assay mixtures containing components specific for each enzyme. […] The consumption of NAD(P)H was monitored for 20 min at 30 °C by following the change in absorbance at 340 nm. IC50 values were estimated from a fit of the initial velocities to a standard equation.

[2] = biological target: T2, Enoyl-[acyl-carrier-protein] reductase [NADPH] FabI (Staphylococcus aureus (strain MRSA252), UniProt Q6GI75); experiment: Enzyme Inhibition Assay; conditions: pH 6.5; 30 °C
T2 sequence (Q6GI75 whole entry): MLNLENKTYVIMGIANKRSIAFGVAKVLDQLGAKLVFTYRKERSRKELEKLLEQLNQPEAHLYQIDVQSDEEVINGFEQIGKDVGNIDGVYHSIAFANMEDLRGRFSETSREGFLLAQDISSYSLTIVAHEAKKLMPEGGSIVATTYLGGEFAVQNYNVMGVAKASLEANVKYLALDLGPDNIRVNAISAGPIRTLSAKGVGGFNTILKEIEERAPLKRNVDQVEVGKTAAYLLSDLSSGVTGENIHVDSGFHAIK
Procedure: as §1

Structure (SMILES)	IC50 [1]	IC50 [2]
COC(=O)C[C@@H]1Nc2ccc(C(=O)N(C)Cc3cc4ccccc4n3C)cc2CN(C)C1=O [(2S)-2-[(Carbomethoxy)methyl]-N,4-dimethyl-N-(1-methyl-1H-indol-2-ylmethyl)-3-oxo-2,3,4,5-tetrahydro-1H-1,4-benzodiazepine-7-carboxamide]	> 100 µM	676 µM
CN(Cc1cc2ccccc2n1C)C(=O)/C=C/c1ccc(N)cc1 [(E)-3-(4-Aminophenyl)-N-methyl-N-(1-methyl-1H-indol-2-ylmethyl)acrylamide]		11.2 µM
CN(Cc1cc2ccccc2n1C)C(=O)c1ccccc1 [N-Methyl-N-(1-methyl-1H-indol-2-ylmethyl)benzamide]	> 100 µM	
